Results as given in patent US8865623B2, “Herbicidally active cyclic diones and derivatives thereof, processes for their preparation, compositions, and method of controlling weeds” (Syngenta Limited, priority 2009, dated 2014).

How the values were obtained:
Type in all cases: in vivo
[1] = test system: Lolium perenne (LOLPE); assay: Pre-emergence herbicidal activity, glasshouse pot test; conditions: Lolium perenne, 312 h; Rate 250 g/ha; pre-emergence spray; evaluated after 13 days; read-out: Pre-emergence activity LOLPE (100=total damage to plant; 0=no damage to plant)
Procedure, shortened: (§1)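 Herbicide damage scored 0–100 at 13 d. Pre-emergence: spray 1 d after sowing; post-emergence: spray after 8 d growth. Formulation acetone/water 50:50, 0.5% Tween 20, aqueous spray.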

[2] = test system: Echinochloa crus-galli (ECHCG); assay: as above; conditions: Echinochloa crus-galli, 312 h; Rate 250 g/ha; pre-emergence spray; evaluated after 13 days; read-out: Pre-emergence activity ECHCG (100=total damage to plant; 0=no damage to plant)
Procedure, shortened: as §1

[3] = test system: Avena fatua (AVEFA); assay: as above; conditions: Avena fatua, 312 h; Rate 250 g/ha; pre-emergence spray; evaluated after 13 days; read-out: Pre-emergence activity AVEFA (100=total damage to plant; 0=no damage to plant)
Procedure, shortened: as §1

[4] = test system: Alopecurus myosuroides (ALOMY); assay: as above; conditions: Alopecurus myosuroides, 312 h; Rate 250 g/ha; pre-emergence spray; evaluated after 13 days; read-out: Pre-emergence activity ALOMY (100=total damage to plant; 0=no damage to plant)
Procedure, shortened: as §1

[5] = test system: Lolium perenne (LOLPE); assay: Post-emergence herbicidal activity, glasshouse pot test; conditions: Lolium perenne, 312 h, rate 250 g/ha, evaluated after 13 days, glasshouse, read-out: Post-emergence activity LOLPE (100=total damage to plant; 0=no damage to plant)
Procedure, shortened: as §1

[6] = test system: Echinochloa crus-galli (ECHCG); assay: as above; conditions: Echinochloa crus-galli, 312 h, rate 250 g/ha, evaluated after 13 days, glasshouse, read-out: Post-emergence activity ECHCG (100=total damage to plant; 0=no damage to plant)
Procedure, shortened: as §1

[7] = test system: Avena fatua (AVEFA); assay: as above; conditions: Avena fatua, 312 h, rate 250 g/ha, evaluated after 13 days, glasshouse, read-out: Post-emergence activity AVEFA (100=total damage to plant; 0=no damage to plant)
Procedure, shortened: as §1

[8] = test system: Alopecurus myosuroides (ALOMY); assay: as above; conditions: Alopecurus myosuroides, 312 h, rate 250 g/ha, evaluated after 13 days, glasshouse, read-out: Post-emergence activity ALOMY (100=total damage to plant; 0=no damage to plant)
Procedure, shortened: as §1

SMILES	pest or weed control at 250 g/ha [1] [%]	pest or weed control at 250 g/ha [2] [%]	pest or weed control at 250 g/ha [3] [%]	pest or weed control at 250 g/ha [4] [%]	pest or weed control at 250 g/ha [5] [%]	pest or weed control at 250 g/ha [6] [%]	pest or weed control at 250 g/ha [7] [%]	pest or weed control at 250 g/ha [8] [%]
CCc1ccc(Oc2nc3ccc(Cl)cc3s2)cc1C1=C(O)CC(C)(C)CC1=O [Example A-287]	100	100	90	100	100	100	100	100
CCc1ccc(Oc2ncc(Cl)cn2)cc1C1=C(O)CC(C)(C)CC1=O [Example A-288]	100	100	60	90	90	100	90	100
CCc1ccc(Oc2cnc3ccc(Br)cc3n2)cc1C1=C(O)CC(C)(C)CC1=O [Example A-289]	90	100	40	60	100	100	100	100
CCc1ccc(Oc2ccc(C#N)cc2C(F)(F)F)cc1C1=C(O)CC(C)(C)CC1=O [Example A-290]	0	20	0	0	10	60	0	0
CCc1ccc(Oc2cnc3ccccc3n2)cc1C1=C(O)CC(C)(C)CC1=O [Example A-291]	100	100	90	70	100	100	100	100
CCc1ccc(Oc2ccc3ccccc3n2)cc1C1=C(O)CC(C)(C)CC1=O [Example A-292]	100	100	50	90	90	100	90	100
CCc1ccc(Oc2nc3cc(Cl)ccc3s2)cc1C1=C(O)CC(C)(C)CC1=O [Example A-293]	100	100	30	80	100	100	100	100
CCc1ccc(Oc2ccc([N+](=O)[O-])cc2C(F)(F)F)cc1C1=C(O)CC(C)(C)CC1=O [Example A-294]	70	90	0	60	20	80	40	40
CCc1ccc(Oc2ccc(C(F)(F)F)c(C#N)c2)cc1C1=C(O)CC(C)(C)CC1=O [Example A-295]	50	70	20	50	40	100	60	80
CCc1ccc(Oc2ncc(Br)cn2)cc1C1=C(O)CC(C)(C)CC1=O [Example A-297]	100	100	50	70	100	100	100	100
CCc1ccc(Oc2cnc3cc(F)ccc3n2)cc1C1=C(O)CC(C)(C)CC1=O [Example A-298]	100	100	100	100	100	100	100	100
CCc1ccc(Oc2nc3ccc([N+](=O)[O-])cc3s2)cc1C1=C(O)CC(C)(C)CC1=O [Example A-299]	100	100	20	50	80	100	90	90
CCc1ccc(Oc2nc3ccc(OC)cc3s2)cc1C1=C(O)CC(C)(C)CC1=O [Example A-300]	100	100	0	80	60	100	70	80
CCc1ccc(Oc2ccc(Cl)cn2)cc1C1=C(O)CC(C)(C)CC1=O [Example A-301]	100	100	60	70	90	100	60	100
CC1(C)OC(C)(C)C(O)=C(c2cc(Oc3ccc(Cl)cc3)ccc2OC(F)(F)F)C1=O [Example A-302]	20	60	40	10	70	100	50	60
CCc1ccc(Oc2nc3ccccc3s2)cc1C1=C(O)CC2(CCOCC2)CC1=O [Example A-303]	90	100	80	80	100	100	100	100
CCc1ccc(Oc2nc3ccc(Cl)cc3s2)cc1C1=C(O)CC2(CCOCC2)CC1=O [Example A-304]	70	100	80	80	100	100	100	100
CCc1ccc(Oc2cnc3ccc(Br)cc3n2)cc1C1=C(O)CC2(CCOCC2)CC1=O [Example A-305]	90	100	60	80	100	100	100	100
